What was measured:
Test in all cases: relative viability (nuclei count vs DMSO), 5 days (fraction); higher = more cells survive
NCI-H1437 = tested on: NCI-H1437
Outline: (§1)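 Lung cancer cell lines were seeded in 1536-well plates and dosed by pin tool the next day, with either a single drug or a fixed anchor-drug dose combined with five library-drug doses (not always all listed) spaced in √10 steps. Five days later, one step fixed the cells and stained their nuclei (final 0.05% Triton X-100, 1% formaldehyde, 1 ug/ml Hoechst), and nuclei were counted on 4× images. Relative viability is the nuclei count in treated wells divided by the count in vehicle wells, and each value is the median of duplicate plates.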

HARA = tested on: HARA
Outline: as §1

NCI-H1792 = tested on: NCI-H1792
Outline: as §1

NCI-H522 = tested on: NCI-H522
Outline: as §1

COR-L23 = tested on: COR-L23
Outline: as §1

NCI-H520 = tested on: NCI-H520
Outline: as §1

NCI-H441 = tested on: NCI-H441
Outline: as §1

LCLC-103H = tested on: LCLC-103H
Outline: as §1

HCC-15 = tested on: HCC-15
Outline: as §1

NCI-H1666 = tested on: NCI-H1666
Outline: as §1

NCI-H650 = tested on: NCI-H650
Outline: as §1

LK-2 = tested on: LK-2
Outline: as §1

HCC-827 = tested on: HCC-827
Outline: as §1

SW 900 = tested on: SW 900
Outline: as §1

NCI-H1975 = tested on: NCI-H1975
Outline: as §1

EKVX = tested on: EKVX
Outline: as §1

NCI-H596 = tested on: NCI-H596
Outline: as §1

HCC-44 = tested on: HCC-44
Outline: as §1

A-427 = tested on: A-427
Outline: as §1

NCI-H838 = tested on: NCI-H838
Outline: as §1

COR-L 105 = tested on: COR-L 105
Outline: as §1

NCI-H23 = tested on: NCI-H23
Outline: as §1

201T = tested on: 201T
Outline: as §1

SK-MES-1 = tested on: SK-MES-1
Outline: as §1

Work on `COc1cc(N2CCC(C(N)=O)CC2)ccc1Nc1nc(N)c(Cl)c(Nc2ccccc2S(=O)(=O)C(C)C)n1` [HG-5-88-01] + CCNC(=O)c1noc(-c2cc(C(C)C)c(O)cc2O)c1-c1ccc(CN2CCOCC2)cc1 [Luminespib] (partner 0.01 µM) yielded a relative viability (NCI-H1437; first compound 0.04 µM) of 1.09, a relative viability (NCI-H1437; first compound 0.1265 µM) of 1.1 and a relative viability (NCI-H1437; first compound 0.4 µM) of 1.07. The relative viability (NCI-H1437; first compound 1.265 µM) was 0.998, the relative viability (NCI-H1437; first compound 4 µM) was 1.23 and the relative viability (HARA; first compound 0.04 µM) was 0.777. It also gave a relative viability (HARA; first compound 0.1265 µM) of 0.813, a relative viability (HARA; first compound 0.4 µM) of 0.565 and a relative viability (HARA; first compound 1.265 µM) of 0.5. For the same compound, the relative viability (HARA; first compound 4 µM) was 0.421, the relative viability (NCI-H1792; first compound 0.04 µM) was 0.442 and the relative viability (NCI-H1792; first compound 0.1265 µM) was 0.609. The relative viability (NCI-H1792; first compound 0.4 µM) was 0.472, the relative viability (NCI-H1792; first compound 1.265 µM) was 0.325 and the relative viability (NCI-H1792; first compound 4 µM) was 0.552. It also gave a relative viability (NCI-H522; first compound 0.04 µM) of 1.06, a relative viability (NCI-H522; first compound 0.1265 µM) of 1.16 and a relative viability (NCI-H522; first compound 0.4 µM) of 1.05. The relative viability (NCI-H522; first compound 1.265 µM) was 0.852, the relative viability (NCI-H522; first compound 4 µM) was 1.21 and the relative viability (COR-L23; first compound 0.04 µM) was 0.69. The relative viability (COR-L23; first compound 0.1265 µM) was 0.575, the relative viability (COR-L23; first compound 0.4 µM) was 0.589 and the relative viability (COR-L23; first compound 1.265 µM) was 0.614. The relative viability (COR-L23; first compound 4 µM) was 0.557, the relative viability (NCI-H520; first compound 0.04 µM) was 0.186 and the relative viability (NCI-H520; first compound 0.1265 µM) was 0.225. The relative viability (NCI-H520; first compound 0.4 µM) was 0.197, the relative viability (NCI-H520; first compound 1.265 µM) was 0.202 and the relative viability (NCI-H520; first compound 4 µM) was 0.247. The relative viability (NCI-H441; first compound 0.04 µM) was 0.284, the relative viability (NCI-H441; first compound 0.1265 µM) was 0.292 and the relative viability (NCI-H441; first compound 0.4 µM) was 0.476. For the same compound, the relative viability (NCI-H441; first compound 1.265 µM) was 0.248, the relative viability (NCI-H441; first compound 4 µM) was 0.297 and the relative viability (LCLC-103H; first compound 0.04 µM) was 1.08. The relative viability (LCLC-103H; first compound 0.1265 µM) was 1.01, the relative viability (LCLC-103H; first compound 0.4 µM) was 0.888 and the relative viability (LCLC-103H; first compound 1.265 µM) was 0.894. The relative viability (LCLC-103H; first compound 4 µM) was 0.879, the relative viability (HCC-15; first compound 0.04 µM) was 0.386 and the relative viability (HCC-15; first compound 0.1265 µM) was 0.2. It also gave a relative viability (HCC-15; first compound 0.4 µM) of 0.553, a relative viability (HCC-15; first compound 1.265 µM) of 0.468 and a relative viability (HCC-15; first compound 4 µM) of 0.41. It also gave a relative viability (NCI-H1666; first compound 0.04 µM) of 1.05, a relative viability (NCI-H1666; first compound 0.1265 µM) of 0.991 and a relative viability (NCI-H1666; first compound 0.4 µM) of 0.948. It also gave a relative viability (NCI-H1666; first compound 1.265 µM) of 0.925, a relative viability (NCI-H1666; first compound 4 µM) of 0.777 and a relative viability (NCI-H650; first compound 0.04 µM) of 0.87. For the same compound, the relative viability (NCI-H650; first compound 0.1265 µM) was 0.802, the relative viability (NCI-H650; first compound 0.4 µM) was 0.816 and the relative viability (NCI-H650; first compound 1.265 µM) was 0.63. For the same compound, the relative viability (NCI-H650; first compound 4 µM) was 0.772, the relative viability (LK-2; first compound 0.04 µM) was 0.192 and the relative viability (LK-2; first compound 0.1265 µM) was 0.241. The relative viability (LK-2; first compound 0.4 µM) was 0.205, the relative viability (LK-2; first compound 1.265 µM) was 0.183 and the relative viability (LK-2; first compound 4 µM) was 0.193. The relative viability (HCC-827; first compound 0.04 µM) was 0.767, the relative viability (HCC-827; first compound 0.1265 µM) was 0.86 and the relative viability (HCC-827; first compound 0.4 µM) was 0.575. For the same compound, the relative viability (HCC-827; first compound 1.265 µM) was 0.581, the relative viability (HCC-827; first compound 4 µM) was 0.361 and the relative viability (SW 900; first compound 0.04 µM) was 0.158. For the same compound, the relative viability (SW 900; first compound 0.1265 µM) was 0.207, the relative viability (SW 900; first compound 0.4 µM) was 0.185 and the relative viability (SW 900; first compound 1.265 µM) was 0.157. It also gave a relative viability (SW 900; first compound 4 µM) of 0.186, a relative viability (NCI-H1975; first compound 0.04 µM) of 0.34 and a relative viability (NCI-H1975; first compound 0.1265 µM) of 0.215. For the same compound, the relative viability (NCI-H1975; first compound 0.4 µM) was 0.35, the relative viability (NCI-H1975; first compound 1.265 µM) was 0.171 and the relative viability (NCI-H1975; first compound 4 µM) was 0.174. For the same compound, the relative viability (EKVX; first compound 0.04 µM) was 0.892, the relative viability (EKVX; first compound 0.1265 µM) was 0.838 and the relative viability (EKVX; first compound 0.4 µM) was 0.752. It also gave a relative viability (EKVX; first compound 4 µM) of 0.838, a relative viability (NCI-H596; first compound 0.04 µM) of 1.18 and a relative viability (NCI-H596; first compound 0.1265 µM) of 1.09. For the same compound, the relative viability (NCI-H596; first compound 0.4 µM) was 1.07, the relative viability (NCI-H596; first compound 1.265 µM) was 1.17 and the relative viability (NCI-H596; first compound 4 µM) was 1.22. It also gave a relative viability (HCC-44; first compound 0.04 µM) of 1.01, a relative viability (HCC-44; first compound 0.1265 µM) of 0.988 and a relative viability (HCC-44; first compound 0.4 µM) of 0.915. The relative viability (HCC-44; first compound 1.265 µM) was 0.366, the relative viability (HCC-44; first compound 4 µM) was 0.783 and the relative viability (A-427; first compound 0.04 µM) was 1.13. For the same compound, the relative viability (A-427; first compound 0.1265 µM) was 0.916, the relative viability (A-427; first compound 0.4 µM) was 0.901 and the relative viability (A-427; first compound 1.265 µM) was 0.769. The relative viability (A-427; first compound 4 µM) was 0.754, the relative viability (NCI-H838; first compound 0.04 µM) was 0.322 and the relative viability (NCI-H838; first compound 0.1265 µM) was 0.288. For the same compound, the relative viability (NCI-H838; first compound 0.4 µM) was 0.212, the relative viability (NCI-H838; first compound 1.265 µM) was 0.276 and the relative viability (NCI-H838; first compound 4 µM) was 0.205. The relative viability (COR-L 105; first compound 0.04 µM) was 0.664, the relative viability (COR-L 105; first compound 0.1265 µM) was 1.02 and the relative viability (COR-L 105; first compound 0.4 µM) was 0.851. The relative viability (COR-L 105; first compound 1.265 µM) was 0.903, the relative viability (COR-L 105; first compound 4 µM) was 0.702 and the relative viability (NCI-H23; first compound 0.04 µM) was 0.215. For the same compound, the relative viability (NCI-H23; first compound 0.1265 µM) was 0.203, the relative viability (NCI-H23; first compound 0.4 µM) was 0.225 and the relative viability (NCI-H23; first compound 1.265 µM) was 0.187. It also gave a relative viability (NCI-H23; first compound 4 µM) of 0.241, a relative viability (201T; first compound 0.04 µM) of 1.01 and a relative viability (201T; first compound 0.1265 µM) of 1.04. For the same compound, the relative viability (201T; first compound 0.4 µM) was 1.08, the relative viability (201T; first compound 1.265 µM) was 1.03 and the relative viability (201T; first compound 4 µM) was 1.11. It also gave a relative viability (SK-MES-1; first compound 0.04 µM) of 0.843, a relative viability (SK-MES-1; first compound 0.1265 µM) of 0.82 and a relative viability (SK-MES-1; first compound 0.4 µM) of 0.823. The relative viability (SK-MES-1; first compound 1.265 µM) was 0.782 and the relative viability (SK-MES-1; first compound 4 µM) was 0.689.

Source: the supplement of paper PMC10307832
